Measured values taken from paper PMC3298469, “A selective and potent CXCR3 antagonist SCH 546738 attenuates the development of autoimmune diseases and delays graft rejection” (BMC Immunology, 2012).

Experiments:
Histamine H1 = Histamine H1 (Homo sapiens, UniProt P35367); assay: GPCR counterscreen binding assay
Experimental: (§1) SCH 546738 was tested at concentrations of 1-10 μM against a panel of 49 GPCR binding assays. Most of the assays were not affected by SCH 546738 (Table 2). […] In addition, SCH 546738 has a favourable pharmacokinetic profile in rodents. […] Therefore, SCH 546738 is suitable for in vivo preclinical studies.

Mu opiate = Mu opiate (Homo sapiens, UniProt P35372); assay: GPCR counterscreen binding assay
Mu opiate, sequence (P35372 whole entry): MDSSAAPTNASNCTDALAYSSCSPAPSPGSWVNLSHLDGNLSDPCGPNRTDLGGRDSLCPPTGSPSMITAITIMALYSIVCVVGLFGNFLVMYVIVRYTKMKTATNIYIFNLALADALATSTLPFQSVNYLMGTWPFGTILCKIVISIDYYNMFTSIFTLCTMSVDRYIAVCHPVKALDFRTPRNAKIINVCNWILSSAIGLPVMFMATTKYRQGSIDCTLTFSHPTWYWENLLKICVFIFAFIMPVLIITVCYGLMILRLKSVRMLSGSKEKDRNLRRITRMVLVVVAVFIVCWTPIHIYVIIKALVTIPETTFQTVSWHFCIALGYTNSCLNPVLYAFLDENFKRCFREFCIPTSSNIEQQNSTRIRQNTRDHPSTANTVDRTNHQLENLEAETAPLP
Experimental: as §1

Muscarinic M2 = Muscarinic M2 (Homo sapiens, UniProt P08172); assay: GPCR counterscreen binding assay
Muscarinic M2, sequence (P08172 whole entry): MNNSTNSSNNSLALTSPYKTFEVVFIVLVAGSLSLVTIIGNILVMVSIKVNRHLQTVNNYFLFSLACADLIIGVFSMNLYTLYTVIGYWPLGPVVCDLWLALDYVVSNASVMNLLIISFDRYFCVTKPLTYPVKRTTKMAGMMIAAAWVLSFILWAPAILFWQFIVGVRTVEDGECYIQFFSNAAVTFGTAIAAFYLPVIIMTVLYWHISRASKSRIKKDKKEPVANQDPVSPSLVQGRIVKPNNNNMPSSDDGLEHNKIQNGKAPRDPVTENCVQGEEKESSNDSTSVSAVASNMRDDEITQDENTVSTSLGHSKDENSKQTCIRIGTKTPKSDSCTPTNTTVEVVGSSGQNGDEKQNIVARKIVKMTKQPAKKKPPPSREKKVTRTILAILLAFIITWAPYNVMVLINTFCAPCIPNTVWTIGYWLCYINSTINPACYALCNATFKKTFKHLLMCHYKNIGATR
Experimental: as §1

Neuropeptide Y (Y5) = Neuropeptide Y (Y5) (Homo sapiens, UniProt Q15761); assay: GPCR counterscreen binding assay
Neuropeptide Y (Y5), sequence (Q15761 whole entry): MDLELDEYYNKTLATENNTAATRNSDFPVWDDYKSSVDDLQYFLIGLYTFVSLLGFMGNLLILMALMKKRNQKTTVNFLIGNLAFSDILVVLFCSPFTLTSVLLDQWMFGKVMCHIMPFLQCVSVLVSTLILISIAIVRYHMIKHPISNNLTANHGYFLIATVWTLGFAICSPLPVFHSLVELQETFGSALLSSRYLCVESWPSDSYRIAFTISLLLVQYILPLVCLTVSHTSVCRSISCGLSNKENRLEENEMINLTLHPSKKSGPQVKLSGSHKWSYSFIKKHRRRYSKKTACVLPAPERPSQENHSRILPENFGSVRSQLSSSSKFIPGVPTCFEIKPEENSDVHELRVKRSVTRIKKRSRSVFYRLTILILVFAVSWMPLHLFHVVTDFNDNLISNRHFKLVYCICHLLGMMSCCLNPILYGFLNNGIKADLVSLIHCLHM
Experimental: as §1

Vasopressin (V1a) = Vasopressin (V1a) (Homo sapiens, UniProt P37288); assay: GPCR counterscreen binding assay
Vasopressin (V1a), sequence (P37288 whole entry): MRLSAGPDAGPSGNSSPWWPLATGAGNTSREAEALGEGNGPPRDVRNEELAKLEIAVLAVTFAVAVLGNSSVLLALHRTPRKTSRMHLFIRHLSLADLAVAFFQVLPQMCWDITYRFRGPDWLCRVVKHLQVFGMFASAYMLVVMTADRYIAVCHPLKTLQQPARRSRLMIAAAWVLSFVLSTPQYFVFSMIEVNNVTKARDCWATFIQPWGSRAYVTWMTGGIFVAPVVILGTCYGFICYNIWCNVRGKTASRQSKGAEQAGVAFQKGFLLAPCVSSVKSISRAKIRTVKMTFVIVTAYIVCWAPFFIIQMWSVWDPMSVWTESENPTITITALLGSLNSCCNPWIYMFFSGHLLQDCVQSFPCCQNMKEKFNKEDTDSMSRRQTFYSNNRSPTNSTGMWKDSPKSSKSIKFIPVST
Experimental: as §1

[1] = plasma pharmacokinetics after oral dosing in C57BL/6 mouse; type: in vivo; settings: 30 mg/kg, 30 mpk oral in 0.4% methylcellulose, n = 3, read-out: AUC (0-24 hr)
Experimental: as §1
Figure 4 Plasma concentration versus time profiles of SCH 546738 in Lewis rat and C57BL/6 mouse. SCH 546738 in 0.4% methylcellulose was administered orally at 10 mg/kg (mpk) in Lewis rats or 30 mpk in C57BL/6 mice. The plasma concentration of SCH 546738 in the blood was calculated as the mean of 3 animals (n = 3) at indicated time points post-dose. Their AUC from 0 to 24 hr is also calculated and indicated.

Lewis rats = assay: rat experimental autoimmune encephalomyelitis; type: in vivo; settings: p.o. in 0.4% methylcellulose, varying doses; data not shown
Experimental: Male Lewis rats challenged by injection of 50 µl (30 mg) of a guinea pig spinal cord homogenate in CFA into one footpad. The animals were treated starting at day 0 and oral dosing continued throughout the 3-week disease course, with varying amounts of SCH 546738 in 0.4% methylcellulose (MC) p.o. Animals were scored for disease severity: 0, no clinical signs; 1, flaccid tail; 2, hind limb weakness; 3, complete hind limb paralysis; 4, complete hind limb paralysis, forelimb weakness or paralysis; 5, death.
For CIA and EAE models, unpaired t-tests were performed using GraphPad InStat version 5.0.1 for Windows 98, GraphPad Software, San Diego California USA (http://www.graphpad.com). Statistical significance was evaluated by comparing the vehicle-treated group with the experimental group using unpaired t-test. Differences were considered significant when p values were <0.05.
Experimental autoimmune encephalomyelitis (EAE) is an animal model for human MS and development of disease is dependent on T cell infiltration into the CNS. In the murine model of EAE, SCH 546738 was tested in combination with interferon-β (IFN-β), a current first-line therapeutic for the amelioration of relapsing-remitting MS. C57BL/6 mice were primed by intravenous injection of pertussis toxin on day 0 and day 2. […] Disease progression was monitored by a scoring system as described in Methods. […]

CXCR3 [2] = biological target: T1, CXCR3 (Homo sapiens, UniProt P49682); assay: human activated T cell chemotaxis induced by CXCL9, CXCL10, CXCL11; type: cell-based; set-up: endogenous in cells
T1 sequence (P49682 1-368): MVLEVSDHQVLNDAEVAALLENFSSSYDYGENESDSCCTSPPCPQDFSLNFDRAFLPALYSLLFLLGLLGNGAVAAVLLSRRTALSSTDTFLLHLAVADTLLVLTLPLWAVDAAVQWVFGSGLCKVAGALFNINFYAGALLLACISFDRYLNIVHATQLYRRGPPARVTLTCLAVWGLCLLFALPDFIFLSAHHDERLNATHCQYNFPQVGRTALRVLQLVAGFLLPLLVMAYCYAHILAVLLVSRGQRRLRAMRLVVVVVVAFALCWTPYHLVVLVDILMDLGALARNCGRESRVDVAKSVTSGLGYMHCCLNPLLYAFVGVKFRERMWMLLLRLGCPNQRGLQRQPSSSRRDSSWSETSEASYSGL
Experimental: The preparation of human activated T cells was performed as described previously [39]. Human peripheral blood lymphocytes were prepared by Ficoll-Hypaque centrifugation, depleted of monocytes, and stimulated for 2 days with 1 µg/ml PHA (Murex Diagnostics, Dartford, U.K.) and 100 U/ml IL-2 (Sigma, St. Louis, MO) in RPMI 1640 supplemented with 10% fetal bovine serum (FBS), 2 mM L-glutamine, 100 µg/ml streptomycin, 100 U/ml penecillin, 1% non-essential amino acids and 2 mM HEPES. Following stimulation, peripheral blood lymphocytes were cultured in above media containing 5% conditioned media (Sigma) for up to 15 days.
Human activated T cell chemotaxis assays were performed using 96-well ChemoTx® microplates (Neuro Probe, Inc., Gaithersburg, MD) with a 3 µm filter as per manufacturers' instructions. Activated T cells were washed with RPMI medium twice, and then resuspended in the medium containing 20% FBS. 1.25 × 10^5 cells/reaction were mixed with indicated concentrations of the compound and placed on the filter. The compound and chemokines were mixed and placed in the bottom well of the ChemoTx system. […] The number of migrated cells was measured using the Cell Titer Glo Luminescent Assay from Promega (Madison, WI) as per vendor's instructions. Chemotaxis is expressed as a chemotactic index, which is a ratio versus the one without chemokines (spontaneous migration). […]

CXCR3 [3] = biological target: T1, CXCR3; assay: competition binding analysis using 35S-SCH 535390 as tracer (SPA); set-up: expressed in transfected cells; host or cells: mouse pro-B Ba/F3 cells (vector pME18Sneo), membrane preparation; settings: competition with 35S-SCH 535390 tracer; multiple experiments; read-out: affinity constant (Ki) of binding to human CXCR3 receptor
Experimental: The cDNAs encoding human, mouse and rat CXCR3 were generated based on the published sequences: human (NM_001504), mouse (NM_009910), rat (NM_053415). The cDNAs for monkey and dog CXCR3 were cloned in the lab. All CXCR3 cDNAs were cloned into the mammalian expression vector pME18Sneo, a derivative of the SRα expression vector as described previously. IL-3-dependent mouse pro-B cells Ba/F3 were transfected to express CXCR3 of different species and cell membranes were prepared as described previously.
A scintillation proximity assay was used for radioligand competition binding assays as described previously with some modifications. For each assay point, 1 µg of membrane was preincubated for 1 hr with 300 µg wheat germ agglutinin (WGA) coated SPA beads (GE Healthcare Life Sciences) in the binding buffer (50 mM HEPES, 1 mM CaCl2, 5 mM MgCl2, 125 mM NaCl, 0.002% NaN3, 1.0% BSA) at room temperature. The beads were spun down, resuspended in the binding buffer and transferred to a 96-well Isoplate (Wallac, Gaithersburg, MD). The indicated concentrations of ^125I-hCXCL10, ^125I-hCXCL11 or ^35S-SCH 535390 with a series of titrations of SCH 546738 were added to start the reaction. After indicated reaction times at room temperature, the amount of radioactivity bound to the SPA beads was determined with a Wallac 1450 Microbeta counter (Wallac). […]

Histamine H1, sequence (P35367 whole entry): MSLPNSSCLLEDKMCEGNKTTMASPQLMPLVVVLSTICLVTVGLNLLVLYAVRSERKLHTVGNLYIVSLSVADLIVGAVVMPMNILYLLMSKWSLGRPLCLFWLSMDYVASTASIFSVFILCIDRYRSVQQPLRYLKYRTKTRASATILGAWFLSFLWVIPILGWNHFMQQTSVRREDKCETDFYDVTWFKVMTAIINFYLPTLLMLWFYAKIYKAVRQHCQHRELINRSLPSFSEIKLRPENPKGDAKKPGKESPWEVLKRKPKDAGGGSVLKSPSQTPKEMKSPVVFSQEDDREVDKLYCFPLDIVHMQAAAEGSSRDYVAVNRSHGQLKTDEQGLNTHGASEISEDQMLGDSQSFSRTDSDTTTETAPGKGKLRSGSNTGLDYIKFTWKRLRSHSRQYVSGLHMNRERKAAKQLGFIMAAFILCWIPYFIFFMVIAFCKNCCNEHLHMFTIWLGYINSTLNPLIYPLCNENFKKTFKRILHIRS

With `CC[C@H]1CN(c2nc(N)c(C(N)=O)nc2Cl)CCN1C1CCN(Cc2ccc(Cl)cc2)CC1` [SCH 546738] the inhibition at 2 µM (Histamine H1) was 46%, the inhibition at 4 µM (Mu opiate) was 22% and the inhibition at 4 µM (Muscarinic M2) was 52%. It also gave an inhibition at 4 µM (Neuropeptide Y (Y5)) of 12%, an inhibition at 4 µM (Vasopressin (V1a)) of 7% and an AUC(0-t) [1] of 12.6 µM·h. The “effect on disease severity” value (Lewis rats) was “reduced the severity of the disease in a dose-dependent manner”, the inhibition at 0.01 µM (CXCR3 [2]; 10 nM compound, CXCL9, CXCL10, CXCL11, 20% FBS, read-out: inhibition of T cell chemotaxis induced by all three CXCR3 ligands) was roughly 90% and the IC90 (CXCR3 [2]; human activated T cells, read-out: IC90 of CXCR3-mediated chemotaxis) was roughly 10 nM. For the same compound, the Ki (CXCR3 [3]) was 0.4 nM.
